Reference: patent US20060147923A1, “Nucleic acid sequences encoding novel point mutations on mglur2 and mglur3” (priority 2002, published 2006)

Molecular target: T1, wild type mGluR2 (Homo sapiens, UniProt Q14416)
T1 construct: expressed in transfected cells; host or cells: HEK293 cells, transient lipid transfection (Effectene, MAGEC plate protocol)
Assay: Phosphoinositide hydrolysis, wild-type mGluR2 (FIG. 1)
Format: cell-based
Settings: HEK-293 cells transfected with wild-type mGluR2; 5 uM glutamate; normalized to 1 mM glutamate control
Source text: For mGluR2 and mGluR3 mutants, the mGluR2/Gα16 nucleic acids are mixed with a lipid-based transfection reagent and are deposited into a well of a multi-well plate coated with fibronectin. The resulting DNA/lipid complexes are subsequently dried in vacuo then seeded with HEK293 cells. This is based on a method designated as MAGECTM, and disclosed in U.S. Provisional Application No. 60/372,476, filed Apr. 15, 2002, and titled, “Matrix Analyses of Gene Expression in Cells.”
11. Approximately forty hours after plating, the cells are analyzed in the phosphoinositide hydrolysis assay.
Phosphoinositide hydrolysis was determined by measuring the accumulation of tritiated inositol monophosphate ([^3H]-IP1) in the presence of LiCl. The method is taken from Berridge: Biochem J (1983) 212: 849-58. This determination provides for comparative data on the level of potentiation and loss of potentiation when testing a purported or known allosteric modulator in the presence of glutamate and either a wild-type mGluR2 or mGluR3 and at least one mutant of the respective mGluR2 or mGluR3.
1. HEK293 cells that were previously transiently transfected with hmGluR2 and Gα16 were labeled overnight with 1 μCi/well myo-[2-^3H]-inositol in a […] DMEM medium.
2. […]
12. The sample was quantified in a scintillation counter after a two-hour waiting period. […]

T1 sequence (Q14416 19-872): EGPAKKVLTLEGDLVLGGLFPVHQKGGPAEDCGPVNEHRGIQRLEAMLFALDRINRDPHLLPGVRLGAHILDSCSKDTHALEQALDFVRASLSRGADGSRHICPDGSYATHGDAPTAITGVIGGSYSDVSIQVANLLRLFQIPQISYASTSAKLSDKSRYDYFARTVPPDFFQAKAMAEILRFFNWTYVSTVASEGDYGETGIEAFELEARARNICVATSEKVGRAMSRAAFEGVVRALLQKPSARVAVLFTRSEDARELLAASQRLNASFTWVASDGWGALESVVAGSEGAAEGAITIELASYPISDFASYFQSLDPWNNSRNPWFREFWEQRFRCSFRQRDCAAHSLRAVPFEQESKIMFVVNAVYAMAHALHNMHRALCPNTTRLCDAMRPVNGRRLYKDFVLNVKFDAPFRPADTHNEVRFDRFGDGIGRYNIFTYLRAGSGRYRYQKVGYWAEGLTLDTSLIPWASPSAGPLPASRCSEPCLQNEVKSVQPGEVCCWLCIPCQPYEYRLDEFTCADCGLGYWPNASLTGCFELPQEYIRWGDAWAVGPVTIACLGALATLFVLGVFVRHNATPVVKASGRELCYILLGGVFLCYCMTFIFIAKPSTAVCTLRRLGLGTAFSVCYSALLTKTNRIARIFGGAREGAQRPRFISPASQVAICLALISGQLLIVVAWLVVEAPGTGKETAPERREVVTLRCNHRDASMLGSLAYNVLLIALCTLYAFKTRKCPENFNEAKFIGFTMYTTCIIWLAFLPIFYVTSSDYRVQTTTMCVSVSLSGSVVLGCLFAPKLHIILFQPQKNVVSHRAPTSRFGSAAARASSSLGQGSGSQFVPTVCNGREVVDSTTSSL

For COc1ccccc1Oc1cccc(N(Cc2cccnc2)S(=O)(=O)CC(F)(F)F)c1 [Compound A], the “effect of modulator on response to glutamate, percent response compared to 1 mM glutamate positive control” value was “up-regulating the response of mGluR2”.
